Results as given in US20250228235A1, “METHODS TO IMPROVE ORRGAN VIABILITY” (Mallinckrodt Pharmaceuticals Ireland Limited, priority 2017, published 2025).

Experiments:
4-week-old swine = assay: Blinded, randomized, controlled pediatric swine asphyxial model of cardiac arrest (survival, cerebral blood flow, hemodynamics); assay type: in vivo
Excerpt: (§1) Neurologic injury following pediatric cardiac arrest (CA) remains common. Inhaled nitric oxide (iNO) may mitigate cerebral mitochondrial dysfunction, a critical convergence point for secondary brain injury, triggered by CA. It was hypothesized that following asphyxia and cardiac arrest, animals treated with 20 ppm iNO during CPR and four hours post-return of spontaneous circulation (ROSC) will have improved cerebral blood flow (CBF) and improved mitochondrial function as defined by increased respiratory control ratio (RCR) and decreased mitochondrial reactive oxygen species (mtROS) compared with placebo.
(§2) 4-week-old swine received 7 minutes of asphyxia, then ventricular fibrillation. Guideline CPR was performed with compression depth (CD)≥⅓ of the chest diameter and standard epinephrine continued for 10 mins or until ROSC, with protocolized post-ROSC care. In a blinded fashion, subjects were randomized (iNO 20 ppm initiated 1 minute into CPR period, n=10, or placebo, n=10). […] Baseline and continuous CBF measurements were taken using invasive clinical and non-invasive optical instrumentation. Cortical and hippocampal tissue were analyzed by high-resolution respirometry to assess mitochondrial function. T-tests and ANOVA were used where applicable. Longitudinal hemodynamic variables were compared using generalized estimating equations to control for within-subject correlation.

[1] = tested on: cerebral mitochondrial function (cortical and hippocampal tissue); assay: High-resolution respirometry of cortical and hippocampal tissue to assess mitochondrial function after cardiac arrest; assay type: in vivo, swine; conditions: iNO 20 ppm vs placebo
Excerpt: as §1, §2

[N]=O [iNO, nitric oxide]
invasive or noninvasive CBF (cerebral blood flow) (4-week-old swine; during CPR and post-ROSC, iNO 20 ppm vs placebo): no significant differences | survived (4-week-old swine; iNO 20 ppm initiated 1 minute into CPR, n=10, placebo 7/10, p=0.21): 10/10 | mtROS generation, cortex ([1]; cortex, p<0.001): significantly lower | Cortex RCR (respiratory control ratio) ([1]; cortex, p=0.04): significantly higher | hippocampal RCR (respiratory control ratio) ([1]; hippocampus, p=0.007): significantly higher | mtROS generation, hippocampus ([1]; hippocampus, p=0.03): significantly lower
